The record followed here is patent publication US20240393292A1, “ALLERGY ANTIGEN AND EPITOPE THEREOF” (HOYU CO., LTD., priority 2019, published 2024).

This assay relates to IgE antibody present in the serum of a wheat-allergic patient. The assay can be described thus: Wheat epitope mapping (1): peptide array of overlapping 15-amino-acid peptides, chemiluminescence. The assay is classed as binding, human. The note with it: bound = chemiluminescence value minus N2nd value of 5 non-wheat-allergic subjects at least 35,000; serum of 49 patients. The method, then:
Epitope mapping was carried out using a library of overlapping peptides (length: 15 amino acids) corresponding to the amino acid sequences identified as allergy components of wheat. Specifically, the library of overlapping peptides was prepared on the basis of the amino acid sequences of SEQ ID NOs: 2, 4, 6, 8, 10, 12, 14, 16, 18, 20, 22, 24, 26 and 28.
The peptides to be synthesized were shifted by 10 amino acids.
For preparation of peptide arrays, the Intavis CelluSpots™ technique was used. Specifically, the peptide arrays were prepared by the following procedure: (1) synthesizing peptides of interest on amino-modified cellulose disks using an automated chemical synthesis apparatus (Intavis MultiPep RS), (2) dissolving the amino-modified cellulose disks to obtain a cellulose-bound peptide solution, and (3) spotting the cellulose-bound peptides onto coated glass slides. The details of each procedure are as described below.
Peptide synthesis was carried out in incremental steps through 9-fluorenylmethoxycarbonyl (Fmoc) chemical reaction on amino-modified cellulose disks in 384-well synthesis plates. Specifically, amino acids in which a Fmoc group is bonded to an amino group were activated in a solution of N,N′-diisopropylcarbodiimide (DIC) and 1-hydroxybenzotriazole (HOBt) in dimethylformamide (DMF) and added dropwise to the cellulose disks so that the Fmoc group-bound amino acids were bound to the amino groups on the cellulose disks (coupling). Unreacted amino groups were capped with acetic anhydride and washed with DMF. Furthermore, the Fmoc groups were eliminated from the amino groups of the amino acids bound to the amino groups on the cellulose disks by treatment with piperidine and washing with DMF. The amino acids bound to the amino groups on the cellulose disks were repetitively subjected to the coupling, the capping, and the Fmoc group elimination described above to elongate the amino terminus for peptide synthesis.
The peptides-bound cellulose disks of interest obtained above in the subsection titled “(1) Synthesis of peptide” were transferred to 96-well plates and treated with a side chain deprotection mixed solution of trifluoroacetic acid (TFA), dichloromethane, triisopropylsilane (TIPS), and water for deprotection of amino acid side chains. Then, the deprotected cellulose-bound peptides were dissolved in a mixed solution of TFA, […] acid (TFMSA), TIPS, and water and precipitated in […] methyl ether (TBME), and the precipitate was resuspended in dimethyl sulfoxide (DMSO) and mixed with a mixed solution of NaCl, sodium citrate, and water to obtain a peptide solution for slide spotting.
The peptide solution for slide spotting obtained above in the subsection titled “(2) Dissolution of amino-modified cellulose disk” was spotted onto Intavis CelluSpots™ slides using Intavis Slide Spotting Robot, and the slides were dried to prepare peptide arrays.
The presence or absence of binding, to each peptide fragment, of an IgE antibody present in the serum of a wheat-allergic patient was measured through antigen-antibody reaction using the peptide arrays. […]
Turning to “SEQ ID NO: 191: common 15-residue epitope sequence of polypeptide (E3) (SQQQQPFPQQQQPLL; REGION 1..15: note = epitope)”, the “binding of patient-specific IgE antibodies to 15-residue peptide” value (“binding” for short) is “confirmed to bind”.

In the case of “SEQ ID NO: 131: common 15-residue epitope sequence of polypeptide (E2) (PPFPQQHQQFPQQQI; REGION 1..15: note = epitope)”, the “binding” value was “confirmed to bind”.

“SEQ ID NO: 2613: common 15-residue epitope sequence of polypeptide (E44) (SAKPLLASLSKRVLT; REGION 1..15: note = epitope)”: the “binding” value is recorded as “confirmed to bind”.

For “SEQ ID NO: 2674: common 15-residue epitope sequence of polypeptide (E46) (YKGPTLLEALDQINE; REGION 1..15: note = epitope)”, the “binding” value is “confirmed to bind”.

In the case of “SEQ ID NO: 1297: common 15-residue epitope sequence of polypeptide (E20) (SINVENVEDNRRALR; REGION 1..15: note = epitope)”, the “binding” value is given as “confirmed to bind”.

On to “SEQ ID NO: 2809: common 15-residue epitope sequence of polypeptide (E49) (VYSANTHRSKWFRVV; REGION 1..15: note = epitope)”, for which the “binding” value is listed as “confirmed to bind”.

Take “SEQ ID NO: 1836: common 15-residue epitope sequence of polypeptide (E30) (VIAEYTVRTLQRTVP; REGION 1..15: note = epitope)”: the “binding” value is on record as “confirmed to bind”.

On to “SEQ ID NO: 1367: common 15-residue epitope sequence of polypeptide (E21) (KPWQQQPLPPQQQPP; REGION 1..15: note = epitope)”, for which the “binding” value is on record as “confirmed to bind”.

Take “SEQ ID NO: 1209: common 15-residue epitope sequence of polypeptide (E18) (PIQQQPQPFPQQPPC; REGION 1..15: note = epitope)”: the “binding” value is on record as “confirmed to bind”.

As for “SEQ ID NO: 1685: common 15-residue epitope sequence of polypeptide (E27) (PAKEAANFTSQVIIM; REGION 1..15: note = epitope)”, the “binding” value is “confirmed to bind”.

With “SEQ ID NO: 414: common 15-residue epitope sequence of polypeptide (E6) (KWRAVLKIGATEPSQ; REGION 1..15: note = epitope)”, the “binding” value is listed as “confirmed to bind”.

As to “SEQ ID NO: 1508: common 15-residue epitope sequence of polypeptide (E23) (QVPLVQQQQFLGQQQ; REGION 1..15: note = epitope)”, the “binding” value was “confirmed to bind”.

As for “SEQ ID NO: 1089: common 15-residue epitope sequence of polypeptide (E15) (STKGGKPFVDILKAG; REGION 1..15: note = epitope)”, the “binding” value is on record as “confirmed to bind”.

Consider “SEQ ID NO: 2309: common 15-residue epitope sequence of polypeptide (E39) (QSRYDAIRAIIYSIV; REGION 1..15: note = epitope)”, for which the “binding” value is listed as “confirmed to bind”.

As to “SEQ ID NO: 2701: common 15-residue epitope sequence of polypeptide (E47) (VYKIGGIGTVPVGRV; REGION 1..15: note = epitope)”, the “binding” value is “confirmed to bind”.

As for “SEQ ID NO: 2154: common 15-residue epitope sequence of polypeptide (E36) (YSQPQQPISQQQQQQ; REGION 1..15: note = epitope)”, the “binding” value is given as “confirmed to bind”.

For the substance “SEQ ID NO: 1608: common 15-residue epitope sequence of polypeptide (E26) (VGYNPDKVPFVPISG; REGION 1..15: note = epitope)”, the “binding” value is recorded as “confirmed to bind”.

Consider “SEQ ID NO: 1977: common 15-residue epitope sequence of polypeptide (E32) (DPTGAKVTKAAIKKK; REGION 1..15: note = epitope)”, for which the “binding” value was “confirmed to bind”.

“SEQ ID NO: 1403: common 15-residue epitope sequence of polypeptide (E22) (QYLQPQQPISQQQAQ; REGION 1..15: note = epitope)”: the “binding” value was “confirmed to bind”.

For “SEQ ID NO: 1257: common 15-residue epitope sequence of polypeptide (E19) (SSLVSMILPRSDCKV; REGION 1..15: note = epitope)”, the “binding” value is recorded as “confirmed to bind”.

Turning to “SEQ ID NO: 29: common 15-residue epitope sequence of polypeptide (E1) (QQILWYHQQQPIQQQ; REGION 1..15: note = epitope)”, the “binding” value is “confirmed to bind”.

In the case of “SEQ ID NO: 2774: common 15-residue epitope sequence of polypeptide (E48) (FLKNGDAGIVKMIPT; REGION 1..15: note = epitope)”, the “binding” value is “confirmed to bind”.

For “SEQ ID NO: 2265: common 15-residue epitope sequence of polypeptide (E38) (LGGIDKRVIERFEKE; REGION 1..15: note = epitope)”, the “binding” value was “confirmed to bind”.

Consider “SEQ ID NO: 974: common 15-residue epitope sequence of polypeptide (E13) (QPFPQQQQPIIILQQ; REGION 1..15: note = epitope)”, for which the “binding” value was “confirmed to bind”.

Take “SEQ ID NO: 1895: common 15-residue epitope sequence of polypeptide (E31) (QVPLVQQQQFPGQQQ; REGION 1..15: note = epitope)”: the “binding” value is on record as “confirmed to bind”.

Turning to “SEQ ID NO: 2830: common 15-residue epitope sequence of polypeptide (E50) (YIVVEGRDGYFEMAC; REGION 1..15: note = epitope)”, the “binding” value was “confirmed to bind”.

For the substance “SEQ ID NO: 1598: common 15-residue epitope sequence of polypeptide (E25) (PQQPAQLEAIRSLVL; REGION 1..15: note = epitope)”, the “binding” value is “confirmed to bind”.

For “SEQ ID NO: 2419: common 15-residue epitope sequence of polypeptide (E41) (QSTLKAWSGKTENEE; REGION 1..15: note = epitope)”, the “binding” value is recorded as “confirmed to bind”.

Take “SEQ ID NO: 562: common 15-residue epitope sequence of polypeptide (E8) (KPSQQQPLPLQQILW; REGION 1..15: note = epitope)”: the “binding” value is given as “confirmed to bind”.

Take “SEQ ID NO: 1010: common 15-residue epitope sequence of polypeptide (E14) (WLQQQLVPQLQQPLS; REGION 1..15: note = epitope)”: the “binding” value was “confirmed to bind”.

Regarding “SEQ ID NO: 2631: common 15-residue epitope sequence of polypeptide (E45) (RFEKEAAEMNKRSFK; REGION 1..15: note = epitope)”, the “binding” value is “confirmed to bind”.

With “SEQ ID NO: 2068: common 15-residue epitope sequence of polypeptide (E35) (PPYCTIAPFGIFGTN; REGION 1..15: note = epitope)”, the “binding” value was “confirmed to bind”.

For the substance “SEQ ID NO: 776: common 15-residue epitope sequence of polypeptide (E11) (QPYPQPQPFPSQQPY; REGION 1..15: note = epitope)”, the “binding” value is recorded as “confirmed to bind”.
